# Experimental data from publication PMC7887271, “Fast acting allosteric phosphofructokinase inhibitors block trypanosome glycolysis and cure acute African trypanosomiasis in mice” (Nature Communications, 2021).
# Where “and” joins values, the source holds several entries; their conditions need not be identical. Equal entries are not always repeated. Where two headings read alike, the source gives them in different places.
# Columns and labels:
# MDCK-MDR1 = details: dog
# Human hERG = Human hERG (Homo sapiens, UniProt Q12809); assay: Human hERG inhibition
# Sequence of Human hERG (Q12809 whole entry): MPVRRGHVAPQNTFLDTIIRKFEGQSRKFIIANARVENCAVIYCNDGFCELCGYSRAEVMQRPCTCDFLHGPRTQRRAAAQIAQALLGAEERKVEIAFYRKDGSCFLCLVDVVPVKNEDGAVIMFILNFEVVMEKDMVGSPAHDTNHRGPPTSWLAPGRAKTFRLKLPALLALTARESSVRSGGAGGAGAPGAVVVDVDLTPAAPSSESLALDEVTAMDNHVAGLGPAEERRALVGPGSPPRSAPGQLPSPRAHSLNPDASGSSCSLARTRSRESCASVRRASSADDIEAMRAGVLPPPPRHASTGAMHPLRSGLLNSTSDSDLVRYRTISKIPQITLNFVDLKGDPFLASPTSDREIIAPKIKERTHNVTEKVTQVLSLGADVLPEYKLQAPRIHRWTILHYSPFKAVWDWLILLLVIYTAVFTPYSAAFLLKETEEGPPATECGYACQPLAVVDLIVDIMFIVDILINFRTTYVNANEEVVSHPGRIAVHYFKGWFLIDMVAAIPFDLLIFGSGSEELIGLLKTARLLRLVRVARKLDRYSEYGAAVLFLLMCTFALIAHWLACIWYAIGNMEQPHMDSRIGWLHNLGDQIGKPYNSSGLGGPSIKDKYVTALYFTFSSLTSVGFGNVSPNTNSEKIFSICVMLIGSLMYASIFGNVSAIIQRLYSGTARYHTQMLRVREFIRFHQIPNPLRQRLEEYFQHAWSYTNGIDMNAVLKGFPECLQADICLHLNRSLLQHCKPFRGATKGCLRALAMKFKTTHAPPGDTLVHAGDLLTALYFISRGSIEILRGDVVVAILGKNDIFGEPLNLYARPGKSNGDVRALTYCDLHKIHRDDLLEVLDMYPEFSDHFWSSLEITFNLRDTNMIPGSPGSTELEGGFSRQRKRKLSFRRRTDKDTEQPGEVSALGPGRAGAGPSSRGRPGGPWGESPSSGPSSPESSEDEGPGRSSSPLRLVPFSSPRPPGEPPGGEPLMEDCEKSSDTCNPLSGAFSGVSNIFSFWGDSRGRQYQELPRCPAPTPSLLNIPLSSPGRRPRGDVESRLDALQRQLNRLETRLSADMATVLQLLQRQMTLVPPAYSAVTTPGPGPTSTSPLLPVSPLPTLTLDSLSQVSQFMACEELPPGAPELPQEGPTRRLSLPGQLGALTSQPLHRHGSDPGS
# Excerpt: Methods are described in Supplementary Methods 5 and 6. Enzyme assay results are means ± SD in multiple assays. ADME results are averages of n = 2 or 3 measurements in individual assays.
# T. b. brucei GVR35-VSL2 = assay: Mouse model of stage 1 and stage 2 HAT, bioluminescence imaging; format: in vivo, T. b. brucei in female CD-1 mice; details: for Side head bioluminescence - Total Flux: D23, individual mice, Supp_Fig13; for parasitaemia in brains of saline-perfused mice: stage 2, day 23, ex vivo; for bioluminescence signal in the body, stage 2 treatment: treatment from day 21
# Excerpt: An alternative mouse model for stage 1 (acute) and stage 2 (CNS-involved) HAT has been developed using a transgenic cell line derived from the pleiomorphic T. b. brucei GVR35 that expresses red-shifted firefly luciferase[17],[18]. […] T. b. brucei GVR35-infected mice present stage 1 disease by day 7 post infection with progression to stage 2 by day 21. By injecting the mouse with luciferin, the level of parasitaemia can be estimated in real time by monitoring the luminescence. Unlike monomorphic Lister 427 T. b. brucei, the pleiomorphic GVR35 T. b. brucei is controlled by a quorum-sensing mechanism resulting in the significant increase in survival time in mice and lower blood parasitaemia that occurs in waves. This extended survival time is also accompanied by parasite dissemination to multiple tissues and organs, including the skin, adipose tissue, lung and brain, with parasite loads increasing over time[17],[19].
# For the mouse model of stage 1 and stage 2 HAT T. b. brucei GVR35-VSL2 parasites (3 × 10^4) were injected into a single donor female CD-1 mouse intraperitoneally. Once infection was established, starting on day 7 for stage 1 studies and day 21 for stage 2 studies, mice were either left untreated (n = 3) or dosed by oral gavage with CTCB compound in Cremophor EL: EtOH: D-PBS (30:10:60 v/v; n = 6). Progression of T. b. brucei GVR35-VSL2 infection was monitored primarily by in vivo bioluminescence imaging of infected mice using an IVIS Spectrum (PerkinElmer). For stage 1 studies, imaging of infected mice was performed before treatment on day 7 post infection and on days following the treatment (days 8, 9 and 14). Imaging on groups of three mice was performed 12 min after intraperitoneal injection of 150 mg kg^−1 D-luciferin (Promega) in PBS. For stage 2 studies, mice were imaged prior to treatment on day 21, and subsequently on days 22 and 23. On day 23, 24 h after the final dose, mice were sacrificed by cervical dislocation and perfused with PBS containing 15 g L^−1 glucose to allow ex vivo imaging of whole brains (Supplementary Figs. 12 and 13).
# Female CD-1 (Charles River UK; 6-8 weeks old) mice were infected with 3 × 10^4 T. b. brucei GVR35-VSL2 bloodstream form parasites intraperitoneally. T. b. brucei GVR35-VSL2 expresses red-shifted luciferase and provides a better signal for imaging (13). Once infection was established, starting on day 7 for Stage 1 studies and day 21 for Stage 2 studies, mice were either left untreated (n=3) or dosed by oral gavage with CTCB compound in Cremophor EL: EtOH : D-PBS (30:10:60 v/v) (n = 6). Additional groups of mice (n=3) that received either a single intraperitoneal dose of diminazene aceturate (Sigma-Aldrich) at 40 mg/kg in sterile water or 0.1 ml melarsoprol gel (14) containing 3.6 mg melarsoprol, applied topically for 3 consecutive days, served as controls for Stage 1 and Stage 2 treatment studies, respectively.
# Progression of T. b. brucei GVR35-VSL2 infection was monitored primarily by in vivo bioluminescence imaging of infected mice using an IVIS Spectrum (PerkinElmer) as described previously (5). For stage 1 studies, imaging of infected mice was performed before treatment on day 7 post-infection and in days following the treatment (days 8, 9 and 14). Imaging on groups of three mice was performed 12 minutes after intraperitoneal injection of 150 mg/kg D-luciferin (Promega) in PBS. For stage 2 studies, mice were imaged prior to treatment on day 21 and subsequently on days 22 and 23. On day 23, 24 hours after the final dose, mice were sacrificed by cervical dislocation and perfused with phosphate-buffered saline containing 15 g.L^−1 glucose to allow ex vivo imaging of whole brains. To this end, 100 μl D-luciferin was administered onto the brain surface and imaging performed immediately thereafter.
# HepG2 cells = assay: HepG2 cytotoxicity assay; format: cell-based, human; details: for Selectivity: EC50 HepG2 divided by EC50 T. b. brucei parasite killing; for EC50: Homo sapiens, HepG2, 72 h, CellTitreGlo
# Experimental: (§1) A HepG2 cytotoxicity assay was used to determine a cellular selectivity index. HepG2 cells were seeded into 96-well plates in EMEM medium. Compounds were assessed for their effect upon cellular viability (Supplementary Methods 5.1). Inhibition of CYP450 was determined using kits from BD Biosciences (Supplementary Methods 5.2). Metabolic stability was determined using mouse […] tested at a single concentration of 5 µM. Plasma protein binding was determined using mouse and human plasma at a single concentration of 10 µM (Supplementary Methods 5.4). All PK studies in mice were carried out by Pharmidex (Supplementary Methods 6.1).
# To determine a cellular selectivity index, a HepG2 Cytotoxicity Assay was used. HepG2 cells (a human hepatocyte carcinoma cell line) were seeded into 96 well plates in EMEM media. Compounds were assessed for their effect upon cellular viability (6 point dose response curves). After 72h the numbers of viable cells were detected using Promega CellTitreGlo reagent to measure ATP using the luciferase/luciferin detection system. The selectivity index is calculated as the EC50 in the HepG2 assay divided by the EC50 determined in the T. b. brucei parasite killing assay.
# [1] = Plasma protein binding, mouse plasma; format: in vitro ADME
# Experimental: as §1
# Compounds were tested for protein binding using mouse and human plasma at a single concentration of 10 µM and measured by equilibrium dialysis between plasma and buffer. The amount of parent was determined on both sides of the membrane after incubating for 4 hours at 37 °C. The samples were crashed with acetonitrile and put through protein precipitation plates. The eluent was analysed by LC/MS or LC/MS/MS. Output was percentage bound.
# [2] = treatment during stage 1 (day 7)
# [3] = 10 µM, equilibrium dialysis, read-out: Mouse plasma protein binding fu(%)
# [4] = percentage bound, read-out: mouse plasma protein binding value (converted)
smiles,measurement,setting,value
"CN(C)CCn1ccc2c(ccn2Cc2ccc(Cl)c(Cl)c2)c1=O [CTCB-405, 1-[(3,4-Dichlorophenyl)methyl]-5-[2-(dimethylamino)ethyl] pyrrolo[3,2-c]pyridin-4-one]",MDCK-MDR1 A-B,MDCK-MDR1,17.6
same,MDCK-MDR1 B-A,MDCK-MDR1,17.2
same,IC50,Human hERG,3.98 µM
same,detection of parasites in blood delayed to,T. b. brucei GVR35-VSL2; [2],14 day post infection
same,"effect on parasitaemia, stage 1 treatment",T. b. brucei GVR35-VSL2; [2],reduced parasitaemia in the body and blood of mice
same,Selectivity,HepG2 cells,56
same,EC50,HepG2 cells,20.8 µM
same,"fraction unbound at 4 h, 10 µM",[1]; [3],0.058
same,"fraction unbound at 4 h, 10 µM",[1]; [4],0.06
"CN(C)CCn1ccc2c(ccn2Cc2ccc(Cl)c(Br)c2)c1=O [CTCB-470, 1-[(3-Bromo-4-chlorophenyl)methyl]-5-[2-(dimethylamino)ethyl] pyrrolo[3,2-c]pyridin-4-one]",MDCK-MDR1 A-B,MDCK-MDR1,34.9
same,MDCK-MDR1 B-A,MDCK-MDR1,28.3
same,IC50,Human hERG,1.69 µM
same,Side head bioluminescence - Total Flux,T. b. brucei GVR35-VSL2,1.100E+07 p/s and 7.724E+06 p/s and 5.606E+06 p/s and 1.306E+06 p/s and 2.050E+07 p/s and 2.702E+06 p/s
same,parasitaemia in brains of saline-perfused mice,T. b. brucei GVR35-VSL2,very clear reduction in parasitaemia
same,"bioluminescence signal in the body, stage 2 treatment",T. b. brucei GVR35-VSL2,fast and significant signal reduction in the body
same,Selectivity,HepG2 cells,39
same,EC50,HepG2 cells,12.3 µM
same,"fraction unbound at 4 h, 10 µM",[1]; [3],0.06
same,"fraction unbound at 4 h, 10 µM",[1]; [4],0.058
"CN(C)CCn1ccc2c(ccn2Cc2ccc(F)c(Br)c2)c1=O [CTCB-508, 1-[(3-Bromo-4-fluorophenyl)methyl]-5-[2-(dimethylamino)ethyl] pyrrolo[3,2-c]pyridin-4-one]",IC50,Human hERG,4.75 µM
same,Side head bioluminescence - Total Flux,T. b. brucei GVR35-VSL2,7.338E+06 p/s and 1.920E+06 p/s and 5.353E+06 p/s and 4.553E+06 p/s and 1.258E+07 p/s and 2.035E+07 p/s
same,parasitaemia in brains of saline-perfused mice,T. b. brucei GVR35-VSL2,very clear reduction in parasitaemia
same,"bioluminescence signal in the body, stage 2 treatment",T. b. brucei GVR35-VSL2,fast and significant signal reduction in the body
same,Selectivity,HepG2 cells,111
same,EC50,HepG2 cells,33.4 µM
same,"fraction unbound at 4 h, 10 µM",[1]; [3],0.18
